Results as given in patent publication US20240016938A1, “METHODS FOR INCREASING THE BIOAVAILABILITY OF NUCLEOSIDE MEDICINAL AGENTS” (ZOGENIX MDS, INC., priority 2022, published 2024).
Read-outs that look alike come from different tables or passages of the source.

Experiment: Phase 1 open-label, fixed-sequence, single-ascending dose and food-effect PK study of MT1621 in adult healthy subjects
Format: in vivo, human
Protocol: A phase 1 study was conducted as an open-label, fixed-sequence, single-ascending dose study in adult healthy subjects designed to evaluate the safety, tolerability, PK, and food-effect of MT1621 (dC and dT). To evaluate the PK of MT1621, the combination was administered at three different doses. Treatment A was a 43.3 mg/kg dose of MT1621 (i.e., a 43.3 mg/kg dose of dC and a 43.3 mg/kg dose of dT (each approximately equivalent to 1 dose of a 130 mg/kg daily dose, divided 3 times daily [TID])) in healthy male and female subjects under fasting conditions; Treatment B was an 86.7 mg/kg dose of MT1621 (i.e., a 86.7 mg/kg dose of dC and a 86.7 mg/kg dose of dT (each approximately equivalent to 1 dose of a 260 mg/kg daily dose, divided TID)) in healthy male and female subjects under fasting conditions; and Treatment C was a 133.3 mg/kg dose of MT1621 (i.e., a 133.3 mg/kg dose of dC and a 133.3 mg/kg dose of dT (each approximately equivalent to a 400 mg/kg daily dose, divided TID)) in healthy male and female subjects under fasting conditions. Additionally, Treatment D was a 133.3 mg/kg dose of MT1621 (i.e., a 133.3 mg/kg dose of dC and a 133.3 mg/kg dose of dT (each approximately equivalent to a 400 mg/kg daily dose, divided TID) in healthy male and female subjects under fed conditions, to determine the effect of a high-fat meal on the single-dose PK of MT1621.
Methodology of open-label, Phase 1, fixed-sequence, single-dose, dose escalation, and food-effect study. Fourteen (14) healthy, adult, male and female subjects were enrolled with an approximately equal distribution (at least 40% of each sex) between male and female subjects.
On Day 1 of each period, subjects received 1 of 3 dose levels of MT1621 under fasting conditions as escalating single doses over 3 periods in Part A (Treatments A, B, and C in Periods 1, 2, and 3, respectively) and with the highest dose under fed conditions in Part B (Treatment D in Period 4). Four (4) of 14 subjects that completed Part A (Periods 1 to 3) could not complete Part B (Treatment D in Period 4) during the original confinement. These subjects were then to return to the clinical unit and continue the study to complete Part B (Treatment D in Period 4); 2 of the 4 subjects completed Part B.
Each treatment was assessed by blood and urine PK sampling pre-dose and up to 48 hours post-dose for the determination of dC and dT in plasma and urine PK, and possible future analysis of blood for PD biomarkers.
A washout period of at least 2 days without drug between each treatment administration was maintained. Fourteen subjects were enrolled in the study, and 12 subjects completed the study. Data from 14 subjects were included in the PK analysis of Periods 1, 2, and 3 and data from 12 subjects were included in the PK analysis of Period 4.
Study drug administered in Example 1 was 0.5 g dC and 0.5 g dT powders for solution and were reconstituted in juice or water.
After reconstitution in a fixed amount of water or juice, the solution was administered via measured volume to provide the amounts specified in Studies A, B, C, and D.
MT1621 was administered orally at Hour 0 on Day 1, following an overnight fast for Treatments A, B, and C and within 5 minutes of consumption of a standardized high-fat breakfast (which included eggs, bacon, and toast with butter) for Treatment D.
Blood samples for the determination of plasma dC and dT concentrations were collected on Day 1 of each period at pre-dose (0 hour), and at 0.25, 0.5, 1, 1.5, 2, 3, 4, 5, 6, 8, 12, 24, and 48 after study drug administration. In Period 4, blood was collected for the 48-hour PK sample; for Periods 1 through 3, the 48-hour PK sample was collected at the same time as the pre-dose PK sample from the next period so only 1 sample was collected for both PK time points. It should be pointed out that Periods 1-3 used sampling up to 24 hours for PK while Period 4 used the complete 48-hour profile. […]

[1] = 100*(test/reference): 133.3 mg/kg MT1621 fed vs fasted, baseline-adjusted plasma
[2] = Treatment A: single 43.3 mg/kg MT1621, fasted, baseline-adjusted plasma, arithmetic mean ± SD
[3] = Treatment B: single 86.7 mg/kg MT1621, fasted, baseline-adjusted plasma, arithmetic mean ± SD
[4] = Treatment D: single 133.3 mg/kg MT1621, fed (high-fat breakfast), baseline-adjusted plasma, arithmetic mean ± SD

Structure (SMILES): Nc1ccn([C@H]2C[C@H](O)[C@@H](CO)O2)c(=O)n1 [dC, β-D-2′-deoxycytidine]
- increase in baseline adjusted AUC, fed compared to fasted (133.3 mg/kg MT1621, plasma): 137%
- increase in baseline adjusted Cmax, fed compared to fasted (133.3 mg/kg MT1621, plasma): 79%
- AUC0-t GMR (%) [1]: 237.18%
- Cmax GMR (%) [1]: 178.88%
- AUC%extrap [2]: 11.36 ± 8.5281%
- Kel [2]: 0.1280 ± 0.1276 h⁻¹
- AUC%extrap [3]: 12.46 ± 13.194%
- Kel [3]: 0.2030 ± 0.1938 h⁻¹
- AUC%extrap (Treatment C: single 133.3 mg/kg MT1621, fasted, baseline-adjusted plasma, arithmetic mean ± SD): 1.152 ± 1.0948%
- AUC%extrap [4]: 3.567 ± 5.0087%
- Kel [4]: 0.7971 ± 0.3869 h⁻¹
- dose proportionality of Cmax (across the 3 fasted dose levels (Treatments A, B, C), plasma): less than dose-proportional
- Vd/F (both sexes, human, oral, Treatment D: single 133.3 mg/kg MT1621, fed (high-fat breakfast), baseline-adjusted plasma, arithmetic mean ± SD, read-out: Vz/F): 1660 ± 1470 L/kg
- half-life (both sexes, human, plasma, oral, 43.3 mg/kg, 43.3 mg/kg dose level, read-out: geometric mean elimination half-life (converted)): 2.16 h
- half-life (both sexes, human, plasma, oral, 43.3 mg/kg, Treatment A: single 43.3 mg/kg MT1621, fasted, baseline-adjusted plasma, arithmetic mean ± SD, read-out: t½ (converted)): 10.3 ± 8.2 h
- AUC(0-inf) (both sexes, human, plasma, oral, 43.3 mg/kg, Treatment A: single 43.3 mg/kg MT1621, fasted, baseline-adjusted plasma, geometric mean (geometric CV %)): 48.4 ng·h/mL
- AUC(0-t) (both sexes, human, plasma, oral, 43.3 mg/kg, Treatment A: single 43.3 mg/kg MT1621, fasted, baseline-adjusted plasma, geometric mean (geometric CV %), read-out: AUC0-4): 7.84 ng·h/mL
- AUC(0-t) (both sexes, human, plasma, oral, 43.3 mg/kg, Treatment A: single 43.3 mg/kg MT1621, fasted, baseline-adjusted plasma, geometric mean (geometric CV %), read-out: AUC0-6): 9.58 ng·h/mL
- AUC(0-t) (both sexes, human, plasma, oral, 43.3 mg/kg, Treatment A: single 43.3 mg/kg MT1621, fasted, baseline-adjusted plasma, geometric mean (geometric CV %), read-out: AUC0-48): 19.6 ng·h/mL
- AUC(0-t) (both sexes, human, plasma, oral, 43.3 mg/kg, Treatment A: single 43.3 mg/kg MT1621, fasted, baseline-adjusted plasma, geometric mean (geometric CV %), read-out: AUC0-t): 13.5 ng·h/mL
- Cmax (both sexes, human, plasma, oral, 43.3 mg/kg, Treatment A: single 43.3 mg/kg MT1621, fasted, baseline-adjusted plasma, geometric mean (geometric CV %), read-out: Cmax): 3.53 ng/mL
- Tmax (both sexes, human, plasma, oral, 43.3 mg/kg, Treatment A: single 43.3 mg/kg MT1621, fasted, baseline-adjusted plasma, median (minimum, maximum), read-out: Tmax): 1.25 h
- half-life (both sexes, human, plasma, oral, 86.7 mg/kg, 86.7 mg/kg dose level, read-out: geometric mean elimination half-life (converted)): 1.44 h
- half-life (both sexes, human, plasma, oral, 86.7 mg/kg, Treatment B: single 86.7 mg/kg MT1621, fasted, baseline-adjusted plasma, arithmetic mean ± SD, read-out: t½ (converted)): 8.62 ± 8.68 h
- AUC(0-inf) (both sexes, human, plasma, oral, 86.7 mg/kg, Treatment B: single 86.7 mg/kg MT1621, fasted, baseline-adjusted plasma, geometric mean (geometric CV %)): 26.6 ng·h/mL
- AUC(0-t) (both sexes, human, plasma, oral, 86.7 mg/kg, Treatment B: single 86.7 mg/kg MT1621, fasted, baseline-adjusted plasma, geometric mean (geometric CV %), read-out: AUC0-4): 10.3 ng·h/mL
- AUC(0-t) (both sexes, human, plasma, oral, 86.7 mg/kg, Treatment B: single 86.7 mg/kg MT1621, fasted, baseline-adjusted plasma, geometric mean (geometric CV %), read-out: AUC0-6): 12.8 ng·h/mL
- AUC(0-t) (both sexes, human, plasma, oral, 86.7 mg/kg, Treatment B: single 86.7 mg/kg MT1621, fasted, baseline-adjusted plasma, geometric mean (geometric CV %), read-out: AUC0-48): 29.4 ng·h/mL
- AUC(0-t) (both sexes, human, plasma, oral, 86.7 mg/kg, Treatment B: single 86.7 mg/kg MT1621, fasted, baseline-adjusted plasma, geometric mean (geometric CV %), read-out: AUC0-t): 23.2 ng·h/mL
- Cmax (both sexes, human, plasma, oral, 86.7 mg/kg, Treatment B: single 86.7 mg/kg MT1621, fasted, baseline-adjusted plasma, geometric mean (geometric CV %), read-out: Cmax): 4.67 ng/mL
- Tmax (both sexes, human, plasma, oral, 86.7 mg/kg, Treatment B: single 86.7 mg/kg MT1621, fasted, baseline-adjusted plasma, median (minimum, maximum), read-out: Tmax): 1.51 h
- half-life (both sexes, human, plasma, oral, 133.3 mg/kg, 133.3 mg/kg dose level, read-out: geometric mean elimination half-life (converted)): 3.01 h
- AUC(0-t) (both sexes, human, plasma, oral, 133.3 mg/kg, Treatment C, fasted, baseline-adjusted plasma, ANOVA on ln-transformed data, read-out: AUC0-t Geometric LSM, 133.3 mg/kg MT1621, Fasted (Reference)): 30.8 ng·h/mL
- Cmax (both sexes, human, plasma, oral, 133.3 mg/kg, Treatment C, fasted, baseline-adjusted plasma, ANOVA on ln-transformed data, read-out: Cmax Geometric LSM, 133.3 mg/kg MT1621, Fasted (Reference)): 7.17 ng/mL
- half-life (both sexes, human, plasma, oral, 133.3 mg/kg, Treatment C: single 133.3 mg/kg MT1621, fasted, baseline-adjusted plasma, arithmetic mean ± SD, read-out: t½ (converted)): 2.67 ± 1.98 h
- AUC(0-inf) (both sexes, human, plasma, oral, 133.3 mg/kg, Treatment C: single 133.3 mg/kg MT1621, fasted, baseline-adjusted plasma, geometric mean (geometric CV %)): 22.5 ng·h/mL
- AUC(0-t) (both sexes, human, plasma, oral, 133.3 mg/kg, Treatment C: single 133.3 mg/kg MT1621, fasted, baseline-adjusted plasma, geometric mean (geometric CV %), read-out: AUC0-4): 17.1 ng·h/mL
- AUC(0-t) (both sexes, human, plasma, oral, 133.3 mg/kg, Treatment C: single 133.3 mg/kg MT1621, fasted, baseline-adjusted plasma, geometric mean (geometric CV %), read-out: AUC0-6): 21.1 ng·h/mL
- AUC(0-t) (both sexes, human, plasma, oral, 133.3 mg/kg, Treatment C: single 133.3 mg/kg MT1621, fasted, baseline-adjusted plasma, geometric mean (geometric CV %), read-out: AUC0-48): 53.1 ng·h/mL
- AUC(0-t) (both sexes, human, plasma, oral, 133.3 mg/kg, Treatment C: single 133.3 mg/kg MT1621, fasted, baseline-adjusted plasma, geometric mean (geometric CV %), read-out: AUC0-t): 30.8 ng·h/mL
- Cmax (both sexes, human, plasma, oral, 133.3 mg/kg, Treatment C: single 133.3 mg/kg MT1621, fasted, baseline-adjusted plasma, geometric mean (geometric CV %), read-out: Cmax): 7.17 ng/mL
- Tmax (both sexes, human, plasma, oral, 133.3 mg/kg, Treatment C: single 133.3 mg/kg MT1621, fasted, baseline-adjusted plasma, median (minimum, maximum), read-out: Tmax): 1.26 h
- AUC(0-t) (both sexes, human, plasma, oral, 133.3 mg/kg, Treatment D, fed, baseline-adjusted plasma, ANOVA on ln-transformed data, read-out: AUC0-t Geometric LSM, 133.3 mg/kg MT1621, Fed (Test)): 73 ng·h/mL
- Cmax (both sexes, human, plasma, oral, 133.3 mg/kg, Treatment D, fed, baseline-adjusted plasma, ANOVA on ln-transformed data, read-out: Cmax Geometric LSM, 133.3 mg/kg MT1621, Fed (Test)): 12.8 ng/mL
- half-life (both sexes, human, plasma, oral, 133.3 mg/kg, Treatment D: single 133.3 mg/kg MT1621, fed (high-fat breakfast), baseline-adjusted plasma, arithmetic mean ± SD, read-out: t½ (converted)): 0.986 ± 0.478 h
- AUC(0-inf) (both sexes, human, plasma, oral, 133.3 mg/kg, Treatment D: single 133.3 mg/kg MT1621, fed (high-fat breakfast), baseline-adjusted plasma, geometric mean (geometric CV %)): 138 ng·h/mL
- AUC(0-t) (both sexes, human, plasma, oral, 133.3 mg/kg, Treatment D: single 133.3 mg/kg MT1621, fed (high-fat breakfast), baseline-adjusted plasma, geometric mean (geometric CV %), read-out: AUC0-4): 31.7 ng·h/mL
- AUC(0-t) (both sexes, human, plasma, oral, 133.3 mg/kg, Treatment D: single 133.3 mg/kg MT1621, fed (high-fat breakfast), baseline-adjusted plasma, geometric mean (geometric CV %), read-out: AUC0-6): 48.2 ng·h/mL
- AUC(0-t) (both sexes, human, plasma, oral, 133.3 mg/kg, Treatment D: single 133.3 mg/kg MT1621, fed (high-fat breakfast), baseline-adjusted plasma, geometric mean (geometric CV %), read-out: AUC0-48): 55.8 ng·h/mL
- AUC(0-t) (both sexes, human, plasma, oral, 133.3 mg/kg, Treatment D: single 133.3 mg/kg MT1621, fed (high-fat breakfast), baseline-adjusted plasma, geometric mean (geometric CV %), read-out: AUC0-t): 73 ng·h/mL
- Cmax (both sexes, human, plasma, oral, 133.3 mg/kg, Treatment D: single 133.3 mg/kg MT1621, fed (high-fat breakfast), baseline-adjusted plasma, geometric mean (geometric CV %), read-out: Cmax): 12.8 ng/mL
- Tmax (both sexes, human, plasma, oral, 133.3 mg/kg, Treatment D: single 133.3 mg/kg MT1621, fed (high-fat breakfast), baseline-adjusted plasma, median (minimum, maximum), read-out: Tmax): 2.02 h
- Tmax (both sexes, human, plasma, oral, under fasted conditions, read-out: median Tmax): 1 to 1.25 h
- Tmax (both sexes, human, plasma, oral, under fed conditions, read-out: median Tmax): 1 h
- plasma exposure compared to endogenous (baseline) concentrations (following MT1621, all 3 dose levels): consistently higher
